Measurements taken from ChEMBL document CHEMBL3632478, “Design, synthesis and biological evaluation of imidazopyridine/imidazopyrimidine-benzimidazole conjugates as potential anticancer agents” (Medchemcomm, 2015).
Each block holds one molecule with its values, some of them ahead of it. Activity calls are given as the source filed them. The calls are words filed in the database; no cut-off is given here.

Columns and labels:
HeLa = assay: Antiproliferative activity against human HeLa cells after 48 hrs by MTT assay; assay type: functional, cell-based
B16 = assay: Antiproliferative activity against mouse B16 cells after 48 hrs by MTT assay; assay type: functional, cell-based; conditions: B16, 48 h
A549 [1] = assay: Antiproliferative activity against human A549 cells after 48 hrs by MTT assay; assay type: functional, cell-based; conditions: A549, 48 h
DU-145 = assay: Antiproliferative activity against human DU145 cells after 48 hrs by MTT assay; assay type: functional, cell-based; conditions: DU-145, 48 h
Tubulin (Sus scrofa) = Tubulin (Sus scrofa) (UniProt P02554+P02550); assay: Inhibition of porcine brain tubulin polymerization at 3 uM after 1 hr by fluorescence assay
Sequence of Tubulin (Sus scrofa) (P02550 whole entry, looked up): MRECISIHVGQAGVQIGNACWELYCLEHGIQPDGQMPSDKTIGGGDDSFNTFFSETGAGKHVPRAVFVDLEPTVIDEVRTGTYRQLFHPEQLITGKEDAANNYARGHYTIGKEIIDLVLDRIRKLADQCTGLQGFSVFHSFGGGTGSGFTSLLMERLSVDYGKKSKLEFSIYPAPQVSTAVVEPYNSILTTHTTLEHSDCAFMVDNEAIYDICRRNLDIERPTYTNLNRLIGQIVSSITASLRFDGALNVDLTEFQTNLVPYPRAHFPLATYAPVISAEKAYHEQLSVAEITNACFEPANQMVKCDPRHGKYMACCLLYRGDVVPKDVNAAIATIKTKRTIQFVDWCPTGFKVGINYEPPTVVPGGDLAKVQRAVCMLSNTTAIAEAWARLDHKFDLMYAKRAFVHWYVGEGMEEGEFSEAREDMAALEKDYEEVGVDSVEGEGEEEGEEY
Sequence of Tubulin (Sus scrofa) (P02554 whole entry, looked up): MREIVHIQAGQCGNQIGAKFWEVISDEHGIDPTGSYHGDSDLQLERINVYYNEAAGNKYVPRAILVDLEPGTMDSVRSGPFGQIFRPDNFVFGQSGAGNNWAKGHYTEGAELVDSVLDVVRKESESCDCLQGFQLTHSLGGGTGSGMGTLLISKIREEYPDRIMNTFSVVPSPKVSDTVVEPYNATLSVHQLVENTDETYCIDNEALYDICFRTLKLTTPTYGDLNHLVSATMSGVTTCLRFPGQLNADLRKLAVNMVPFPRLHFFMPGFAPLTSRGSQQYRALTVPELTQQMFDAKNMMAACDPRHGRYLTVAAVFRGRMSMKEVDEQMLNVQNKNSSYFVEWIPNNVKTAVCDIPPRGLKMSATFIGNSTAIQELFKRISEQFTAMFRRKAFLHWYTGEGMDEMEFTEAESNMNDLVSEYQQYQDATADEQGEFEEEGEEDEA

A549 [2] = assay: Induction of apoptosis in human A549 cells assessed as late apoptotic cells at 1 uM after 48 hrs by annexin V-FITC and propidium iodide double staining based flow cytometric analysis (reference value: 0.14%); assay type: functional
A549 [3] = assay: Cell cycle arrest in human A549 cells assessed as accumulation at sub G1 phase at 1 uM after 48 hrs by propidium iodide based flow cytometry (reference value: 0.65%); assay type: functional
A549 [4] = assay: Induction of apoptosis in human A549 cells assessed as dead cells at 1 uM after 48 hrs by annexin V-FITC and propidium iodide double staining based flow cytometric analysis (Rvb =0.07%); assay type: functional
A549 [5] = assay: Induction of apoptosis in human A549 cells assessed as viable cells at 1 uM after 48 hrs by annexin V-FITC and propidium iodide double staining based flow cytometric analysis (reference value: 99.79%); assay type: functional; conditions: A549, 48 h, read-out: Activity
A549 [6] = assay: Induction of apoptosis in human A549 cells assessed as early apoptotic cells at 1 uM after 48 hrs by annexin V-FITC and propidium iodide double staining based flow cytometric analysis (reference value: 0%); assay type: functional
A549 [7] = assay: Cell cycle arrest in human A549 cells assessed as accumulation at G2/M phase at 1 uM after 48 hrs by propidium iodide based flow cytometry (reference value: 10.39%); assay type: functional
A549 [8] = assay: Cell cycle arrest in human A549 cells assessed as accumulation at S phase at 1 uM after 48 hrs by propidium iodide based flow cytometry (reference value: 3.59%); assay type: functional
A549 [9] = assay: Cell cycle arrest in human A549 cells assessed as accumulation at G0/G1 phase at 1 uM after 48 hrs by propidium iodide based flow cytometry (reference value: 85.63%); assay type: functional
A549 [10] = assay: Induction of apoptosis in human A549 cells assessed as apoptotic bodies at 1 uM after 48 hrs by Hoechst 33342 based fluorescent microscopic analysis; assay type: functional, cell-based
A549 [11] = assay: Induction of apoptosis in human A549 cells assessed as early apoptotic cells at 2 uM after 48 hrs by annexin V-FITC and propidium iodide double staining based flow cytometric analysis (reference value: 0%); assay type: functional
A549 [12] = assay: Cell cycle arrest in human A549 cells assessed as accumulation at G2/M phase at 2 uM after 48 hrs by propidium iodide based flow cytometry (reference value: 10.39%); assay type: functional
A549 [13] = assay: Inhibition of microtubule organization in human A549 cells at 1 uM after 48 hrs by immunofluorescence microscopic analysis; assay type: cell-based
A549 [14] = assay: Induction of apoptosis in human A549 cells assessed as caspase-3 activation at 1 uM after 48 hrs by Ac-DEVD substrate based fluorescence assay relative to control; assay type: functional
A549 [15] = assay: Induction of apoptosis in human A549 cells assessed as […] condensation at 1 uM after 48 hrs by Hoechst 33342 based fluorescent microscopic analysis; assay type: functional, cell-based
A549 [16] = assay: Induction of apoptosis in human A549 cells assessed as dead cells at 2 uM after 48 hrs by annexin V-FITC and propidium iodide double staining based flow cytometric analysis (Rvb =0.07%); assay type: functional
A549 [17] = assay: Induction of apoptosis in human A549 cells assessed as viable cells at 2 uM after 48 hrs by annexin V-FITC and propidium iodide double staining based flow cytometric analysis (reference value: 99.79%); assay type: functional; conditions: A549, 48 h, read-out: Activity
A549 [18] = assay: Cell cycle arrest in human A549 cells assessed as accumulation at G0/G1 phase at 2 uM after 48 hrs by propidium iodide based flow cytometry (reference value: 85.63%); assay type: functional
Tubulin = Tubulin (Sus scrofa, UniProt P02554+P02550); assay: Inhibition of porcine brain tubulin polymerization after 1 hr by fluorescence assay
A549 [19] = assay: Induction of apoptosis in human A549 cells assessed as DNA fragmentation at 1 uM after 48 hrs by ethidium bromide based agarose gel electrophoresis; assay type: functional, cell-based
A549 [20] = assay: Cell cycle arrest in human A549 cells assessed as accumulation at S phase at 2 uM after 48 hrs by propidium iodide based flow cytometry (reference value: 3.59%); assay type: functional
A549 [21] = assay: Induction of apoptosis in human A549 cells assessed as nuclear fragmentation at 1 uM after 48 hrs by Hoechst 33342 based fluorescent microscopic analysis; assay type: functional, cell-based
A549 [22] = assay: Induction of apoptosis in human A549 cells assessed as late apoptotic cells at 2 uM after 48 hrs by annexin V-FITC and propidium iodide double staining based flow cytometric analysis (reference value: 0.14%); assay type: functional
A549 [23] = assay: Cell cycle arrest in human A549 cells assessed as accumulation at sub G1 phase at 2 uM after 48 hrs by propidium iodide based flow cytometry (reference value: 0.65%); assay type: functional
A549 [24] = assay: Induction of apoptosis in human A549 cells assessed as caspase-3 activation at 2 uM after 48 hrs by Ac-DEVD substrate based fluorescence assay relative to control; assay type: functional

Compound: COC(=O)Nc1nc2cc(C(=O)c3cccs3)ccc2[nH]1 [NOCODAZOLE]
inhibition (Tubulin (Sus scrofa)): 66.9%
Activity (A549 [2]): 1.29%
Activity (A549 [3]): 9.23%
IC50 (HeLa): 2.23 µM
Activity (A549 [4]): 0.04%
viability at 1 µM (A549 [5]): 87%
Activity (A549 [6]): 11.71%
Activity (A549 [7]): 24.28%
Activity (A549 [8]): 0.69%
IC50 (B16): 0.69 µM
IC50 (A549 [1]): 1.62 µM
IC50 (DU-145): 0.25 µM
Activity (A549 [9]): 63.76%

Compound: COc1ccc(-c2nc3ccccn3c2-c2nc3ccccc3[nH]2)cc1
IC50 (HeLa): 20.4 µM
IC50 (B16): > 30 µM
IC50 (A549 [1]): 23.2 µM
IC50 (DU-145): 24 µM

Compound: c1ccc(-c2nc3ncccn3c2-c2nc3ccccc3[nH]2)cc1
Activity (A549 [10]): Active
Activity (A549 [11]): 10.25%
inhibition (Tubulin (Sus scrofa)): 60.5%
Activity (A549 [12]): 33.8%
inhibition (A549 [13]): Active
Activity (A549 [2]): 2.69%
Activity (A549 [3]): 1.28%
fold change (FC) (A549 [14]): 2
Activity (A549 [15]): Active
Activity (A549 [16]): 0.18%
IC50 (HeLa): 2.25 µM
viability at 2 µM (A549 [17]): 88.4%
Activity (A549 [4]): 0.35%
Activity (A549 [18]): 64.8%
IC50 (Tubulin): 2.26 µM
Activity (A549 [19]): Active
viability at 1 µM (A549 [5]): 91.9%
Activity (A549 [6]): 5.08%
Activity (A549 [7]): 12.6%
Activity (A549 [8]): 3.71%
IC50 (B16): 10.5 µM
IC50 (A549 [1]): 1.92 µM
Activity (A549 [20]): 2.88%
IC50 (DU-145): 2.34 µM
Activity (A549 [21]): Active
Activity (A549 [22]): 1.2%
Activity (A549 [23]): 2.7%
fold change (FC) (A549 [24]): 2
Activity (A549 [9]): 83.5%

Compound: COc1ccc(-c2nc3ncccn3c2-c2nc3ccc(C)cc3[nH]2)cc1
Activity (A549 [10]): Active
Activity (A549 [11]): 13.49%
inhibition (Tubulin (Sus scrofa)): 61.1%
Activity (A549 [12]): 29%
inhibition (A549 [13]): Active
Activity (A549 [2]): 1.43%
Activity (A549 [3]): 0.76%
fold change (FC) (A549 [14]): 2
Activity (A549 [15]): Active
Activity (A549 [16]): 0.07%
IC50 (HeLa): 2.57 µM
viability at 2 µM (A549 [17]): 85.1%
Activity (A549 [4]): 0.22%
Activity (A549 [18]): 59.33%
IC50 (Tubulin): 2.06 µM
Activity (A549 [19]): Active
viability at 1 µM (A549 [5]): 90.2%
Activity (A549 [6]): 8.18%
Activity (A549 [7]): 11.7%
Activity (A549 [8]): 3.65%
IC50 (B16): 3.63 µM
IC50 (A549 [1]): 1.48 µM
Activity (A549 [20]): 3.63%
IC50 (DU-145): 7.08 µM
Activity (A549 [21]): Active
Activity (A549 [22]): 1.3%
Activity (A549 [23]): 2.19%
fold change (FC) (A549 [24]): 2
Activity (A549 [9]): 82.68%

Compound: Clc1ccc2nc(-c3c(-c4ccccc4)nc4ncccn34)[nH]c2c1
IC50 (HeLa): > 30 µM
IC50 (B16): > 30 µM
IC50 (A549 [1]): > 30 µM
IC50 (DU-145): > 30 µM

Compound: COc1ccc2nc(-c3c(-c4ccc(F)cc4)nc4ncccn34)[nH]c2c1
IC50 (HeLa): 19.9 µM
IC50 (B16): > 30 µM
IC50 (A549 [1]): 18.6 µM
IC50 (DU-145): 16 µM

Compound: COc1ccc(-c2nc3ccccn3c2-c2nc3ccc(OC)cc3[nH]2)cc1
IC50 (HeLa): > 30 µM
IC50 (B16): > 30 µM
IC50 (A549 [1]): > 30 µM
IC50 (DU-145): > 30 µM

Compound: COc1ccc(-c2nc3ccccn3c2-c2nc3ccc(F)cc3[nH]2)cc1
IC50 (HeLa): 17.6 µM
IC50 (B16): 14.8 µM
IC50 (A549 [1]): 14.6 µM
IC50 (DU-145): 15.9 µM

Compound: COc1ccc(-c2nc3ccccn3c2-c2nc3ccc(C)cc3[nH]2)cc1
IC50 (HeLa): 26.4 µM
IC50 (B16): > 30 µM
IC50 (A549 [1]): > 30 µM
IC50 (DU-145): > 30 µM

Compound: Fc1ccc(-c2nc3ncccn3c2-c2nc3ccc(Cl)cc3[nH]2)cc1
IC50 (HeLa): 20.3 µM
IC50 (B16): > 30 µM
IC50 (A549 [1]): 19.7 µM
IC50 (DU-145): 12.6 µM

The remaining molecules from weak to strong by IC50 (HeLa), led by results:

IC50 (HeLa): 17 µM
IC50 (B16): 19.4 µM
IC50 (A549 [1]): 15.1 µM
IC50 (DU-145): 13.8 µM
Compound: COc1ccc(-c2nc3ncccn3c2-c2nc3ccc(F)cc3[nH]2)cc1

IC50 (HeLa): 15.8 µM
IC50 (B16): 19.9 µM
IC50 (A549 [1]): 6.91 µM
IC50 (DU-145): 5.62 µM
Compound: COc1ccc(-c2nc3ncccn3c2-c2nc3ccc(OC)cc3[nH]2)cc1

IC50 (HeLa): 15.3 µM
IC50 (B16): 15.6 µM
IC50 (A549 [1]): 19.2 µM
IC50 (DU-145): 14.4 µM
Compound: Fc1ccc(-c2nc3ncccn3c2-c2nc3ccc(F)cc3[nH]2)cc1

IC50 (HeLa): 14.5 µM
IC50 (B16): 16 µM
IC50 (A549 [1]): 19.4 µM
IC50 (DU-145): 19.5 µM
Compound: COc1ccc(-c2nc3ccccn3c2-c2nc3ccc(Cl)cc3[nH]2)cc1

IC50 (HeLa): 14 µM
IC50 (B16): 26.8 µM
IC50 (A549 [1]): 10.2 µM
IC50 (DU-145): 19.9 µM
Compound: COc1ccc(-c2nc3ncccn3c2-c2nc3ccc(Cl)cc3[nH]2)cc1

IC50 (HeLa): 12.9 µM
IC50 (B16): 15.1 µM
IC50 (A549 [1]): > 30 µM
IC50 (DU-145): 10.2 µM
Compound: Cc1ccc2nc(-c3c(-c4ccc(F)cc4)nc4ncccn34)[nH]c2c1

IC50 (HeLa): 9.33 µM
IC50 (B16): 10.2 µM
IC50 (A549 [1]): 2.12 µM
IC50 (DU-145): 3.71 µM
Compound: COc1ccc2nc(-c3c(-c4ccccc4)nc4ncccn34)[nH]c2c1

IC50 (HeLa): 9.06 µM
IC50 (B16): 16.7 µM
IC50 (A549 [1]): 10.5 µM
IC50 (DU-145): 13.2 µM
Compound: COc1ccc(-c2nc3ncccn3c2-c2nc3ccccc3[nH]2)cc1

IC50 (HeLa): 8.19 µM
IC50 (B16): 16.6 µM
IC50 (A549 [1]): 11 µM
IC50 (DU-145): 7.78 µM
Compound: Fc1ccc(-c2nc3ncccn3c2-c2nc3ccccc3[nH]2)cc1

IC50 (HeLa): 7.58 µM
IC50 (B16): 8.91 µM
IC50 (A549 [1]): 2.19 µM
IC50 (DU-145): 2.34 µM
Compound: Cc1ccc2nc(-c3c(-c4ccccc4)nc4ncccn34)[nH]c2c1

IC50 (HeLa): 6.91 µM
IC50 (B16): 17 µM
IC50 (A549 [1]): 8.51 µM
IC50 (DU-145): 4.89 µM
Compound: Fc1ccc2nc(-c3c(-c4ccccc4)nc4ncccn34)[nH]c2c1
